For 27 compounds, IC50 results are on record in US20240299386A1, “Novel imidazole derivatives having protein kinase inhibitory activity and uses thereof” (INDUSTRY-UNIVERSITY COOPERATION FOUNDATION HANYANG …, priority 2021, published 2024).

Sequence of JNK3 (P53779 whole entry, species assumed): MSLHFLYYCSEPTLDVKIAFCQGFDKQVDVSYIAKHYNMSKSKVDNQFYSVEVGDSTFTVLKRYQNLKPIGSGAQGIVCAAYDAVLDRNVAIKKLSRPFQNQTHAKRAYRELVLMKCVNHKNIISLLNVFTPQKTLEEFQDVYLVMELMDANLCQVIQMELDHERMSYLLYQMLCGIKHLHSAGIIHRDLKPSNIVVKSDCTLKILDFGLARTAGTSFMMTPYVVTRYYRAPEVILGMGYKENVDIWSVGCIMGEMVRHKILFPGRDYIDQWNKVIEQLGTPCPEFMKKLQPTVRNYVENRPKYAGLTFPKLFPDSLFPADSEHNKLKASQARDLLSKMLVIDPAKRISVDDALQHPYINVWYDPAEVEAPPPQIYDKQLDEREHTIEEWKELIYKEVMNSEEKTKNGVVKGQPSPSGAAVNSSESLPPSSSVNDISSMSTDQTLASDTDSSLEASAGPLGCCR

One assay has as its target JNK3 (Homo sapiens, UniProt P53779). Briefly: Measurement of JNK3 enzyme activity. The settings on record: Table 1. It is filed as biochemical. From the text:
Experimental Example 1. Measurement of JNK3 Enzyme Activity
Broadly, the IC50 is the concentration needed to halve the response being measured. High values mean weaker potency, low ones greater potency. `CCOC(=O)C1Cc2nc(-c3ccc(F)c(C(F)(F)F)c3)n(-c3ccnc(N[C@H]4CCCN(C(=O)C5CC5)C4)n3)c2C1` (stereo partly drawn) [Compound 18a, ethyl 1-(2-(((S)-1-(cyclopropanecarbonyl)piperidin-3-yl)amino)pyrimidin-4-yl)-2-(4-fluoro-3-(trifluoromethyl)phenyl)-1,4,5,6-tetracyclopenta[d]imidazol-5-carboxylate] came in with an IC50 of less than 0.03 µM.

`CNC(=O)C1Cc2nc(-c3ccc(F)c(C(F)(F)F)c3)n(-c3ccnc(NC4CCCN(C(=O)C5CC5)C4)n3)c2C1` (single isomer, unassigned) [Compound 27a] had an IC50 of more than 1 µM.

Take `CNC(=O)C1Cc2nc(-c3ccc(F)c(C(F)(F)F)c3)n(-c3ccnc(NC4CCCN(C(=O)C5CC5)C4)n3)c2C1` (single isomer, unassigned) [Compound 26a]: the half-inhibitory concentration (IC50) was less than 0.03 µM. `NC(=O)C1Cc2nc(-c3ccc(F)c(C(F)(F)F)c3)n(-c3ccnc(N[C@H]4CCN(C(=O)C5CC5)C4)n3)c2C1` (stereo partly drawn) [Compound 20a, 1-(2-(((S)-1-(cyclopropanecarbonyl)pyrrolidine-3-yl)amino)pyrimidin-4-yl)-2-(4-fluoro-3-(trifluoromethyl)phenyl)-1,4,5,6-tetracyclopenta[d]imidazol-5-carboxamide] yielded a 50% inhibitory concentration (IC50) of more than 1 µM.

Still in this assay, the particulars now being: Table 2.
The compound `CCOC(=O)C1Cc2nc(-c3ccc(Cl)c(Cl)c3)n(-c3ccnc(N[C@@H]4CCN(C(=O)C5CC5)C4)n3)c2C1` (stereo partly drawn) [Compound 17b, ethyl 1-(2-(((R)-1-(cyclopropanecarbonyl)pyrrolidine-3-yl)amino)pyrimidin-4-yl)-2-(3,4-dichlorophenyl)-1,4,5,6-tetracyclopenta[d]imidazol-5-carboxylate] displayed an IC50 of less than 0.03 µM.

For the compound `NC(=O)C1Cc2nc(-c3ccc(Cl)c(Cl)c3)n(-c3ccnc(N[C@@H]4CCCN(C(=O)C5CC5)C4)n3)c2C1` (stereo partly drawn) [Compound 23b, 1-(2-(((R)-1-(cyclopropanecarbonyl)piperidin-3-yl)amino)pyrimidin-4-yl)-2-(3,4-dichlorophenyl)-1,4,5,6-tetracyclopenta[d]imidazol-5-carboxamide], the IC50 is less than 0.03 µM.

`CCOC(=O)C1Cc2nc(-c3ccc(Cl)c(Cl)c3)n(-c3ccnc(N[C@H]4CCN(C(=O)C5CC5)C4)n3)c2C1` (stereo partly drawn) [Compound 16b, ethyl 1-(2-(((S)-1-(cyclopropanecarbonyl)pyrrolidine-3-yl)amino)pyrimidin-4-yl)-2-(3,4-dichlorophenyl)-1,4,5,6-tetracyclopenta[d]imidazol-5-carboxylate] gave a 50% inhibitory concentration (IC50) of less than 0.03 µM. As to `CCOC(=O)C1Cc2nc(-c3ccc(Cl)c(Cl)c3)n(-c3ccnc(N[C@@H]4CCCN(C(=O)C5CC5)C4)n3)c2C1` (stereo partly drawn) [Compound 19b, ethyl 1-(2-(((R)-1-(cyclopropanecarbonyl)piperidin-3-yl)amino)pyrimidin-4-yl)-2-(3,4-dichlorophenyl)-1,4,5,6-tetracyclopenta[d]imidazol-5-carboxylate], the IC50 was less than 0.03 µM.

Regarding `NC(=O)C1Cc2nc(-c3ccc(Cl)c(Cl)c3)n(-c3ccnc(N[C@@H]4CCN(C(=O)C5CC5)C4)n3)c2C1` (stereo partly drawn) [Compound 21b, 1-(2-(((R)-1-(cyclopropanecarbonyl)pyrrolidine-3-yl)amino)pyrimidin-4-yl)-2-(3,4-dichlorophenyl)-1,4,5,6-tetracyclopenta[d]imidazol-5-carboxamide], the IC50 was less than 0.03 µM.

Staying with this assay, now noted: Table 3.
For `NC(=O)C1Cc2nc(-c3ccc4ccccc4c3)n(-c3ccnc(N[C@@H]4CCN(C(=O)C5CC5)C4)n3)c2C1` (stereo partly drawn) [Compound 21c, 1-(2-(((R)-1-(cyclopropanecarbonyl)pyrrolidine-3-yl)amino)pyrimidin-4-yl)-2-(naphthalen-2-yl)-1,4,5,6-tetracyclopenta[d]imidazol-5-carboxamide], the 50% inhibitory concentration (IC50) is less than 0.03 µM.

`CCOC(=O)C1Cc2nc(-c3ccc4ccccc4c3)n(-c3ccnc(N[C@@H]4CCN(C(=O)C5CC5)C4)n3)c2C1` (stereo partly drawn) [Compound 17c, ethyl 1-(2-(((R)-1-(cyclopropanecarbonyl)pyrrolidine-3-yl)amino)pyrimidin-4-yl)-2-(naphthalen-2-yl)-1,4,5,6-tetracyclopenta[d]imidazol-5-carboxylate] had a 50% inhibitory concentration (IC50) of less than 0.03 µM.

`NC(=O)C1Cc2nc(-c3ccc4ccccc4c3)n(-c3ccnc(N[C@H]4CCCN(C(=O)C5CC5)C4)n3)c2C1` (stereo partly drawn) [Compound 22c, 1-(2-(((S)-1-(cyclopropanecarbonyl)piperidin-3-yl)amino)pyrimidin-4-yl)-2-(naphthalen-2-yl)-1,4,5,6-tetracyclopenta[d]imidazol-5-carboxamide]: the IC50 is less than 0.03 µM. Same read-out and setting: the value for `NC(=O)C1Cc2nc(-c3ccc4ccccc4c3)n(-c3ccnc(N[C@@H]4CCCN(C(=O)C5CC5)C4)n3)c2C1` (stereo partly drawn) [Compound 23c, 1-(2-(((R)-1-(cyclopropanecarbonyl)piperidin-3-yl)amino)pyrimidin-4-yl)-2-(naphthalen-2-yl)-1,4,5,6-tetracyclopenta[d]imidazol-5-carboxamide] was less than 0.03 µM; that for `CCOC(=O)C1Cc2nc(-c3ccc4ccccc4c3)n(-c3ccnc(N[C@@H]4CCCN(C(=O)C5CC5)C4)n3)c2C1` (stereo partly drawn) [Compound 19c, ethyl 1-(2-(((R)-1-(cyclopropanecarbonyl)piperidin-3-yl)amino)pyrimidin-4-yl)-2-(naphthalen-2-yl)-1,4,5,6-tetracyclopenta[d]imidazol-5-carboxylate] was less than 0.03 µM.

Still in this assay, the particulars now being: Table 4.
The compound `NC(=O)C1Cc2nc(-c3ccc4c(c3)OCO4)n(-c3ccnc(N[C@H]4CCCN(C(=O)C5CC5)C4)n3)c2C1` (stereo partly drawn) [Compound 22d, 2-(benzo[d][1,3]dioxol-5-yl)-1-(2-(((S)-1-(cyclopropanecarbonyl)piperidin-3-yl)amino)pyrimidin-4-yl)-1,4,5,6-tetracyclopenta[d]imidazol-5-carboxamide] returned an IC50 of less than 0.03 µM. On the same count and under the same terms, the same measure for `CNC(=O)C1Cc2nc(-c3ccc4c(c3)OCO4)n(-c3ccnc(N[C@@H]4CCN(C(=O)C5CC5)C4)n3)c2C1` (stereo partly drawn) [Compound 25d]: less than 0.03 µM; for `CCOC(=O)C1Cc2nc(-c3ccc4c(c3)OCO4)n(-c3ccnc(N[C@H]4CCN(C(=O)C5CC5)C4)n3)c2C1` (stereo partly drawn) [Compound 16d, ethyl 2-(benzo[d][1,3]dioxol-5-yl)-1-(2-(((S)-1-(cyclopropanecarbonyl)pyrrolidine-3-yl)amino)pyrimidin-4-yl)-1,4,5,6-tetracyclopenta[d]imidazol-5-carboxylate]: more than 1 µM; for `CCOC(=O)C1Cc2nc(-c3ccc4c(c3)OCO4)n(-c3ccnc(N[C@@H]4CCCN(C(=O)C5CC5)C4)n3)c2C1` (stereo partly drawn) [Compound 19d, ethyl 2-(benzo[d][1,3]dioxol-5-yl)-1-(2-(((R)-1-(cyclopropanecarbonyl)piperidin-3-yl)amino)pyrimidin-4-yl)-1,4,5,6-tetracyclopenta[d]imidazol-5-carboxylate]: less than 0.03 µM. The compound `NC(=O)C1Cc2nc(-c3ccc4c(c3)OCO4)n(-c3ccnc(N[C@@H]4CCCN(C(=O)C5CC5)C4)n3)c2C1` (stereo partly drawn) [Compound 23d] gave an IC50 of less than 0.03 µM. The same measure, in the same setting: the value for `NC(=O)C1Cc2nc(-c3ccc4c(c3)OCO4)n(-c3ccnc(N[C@H]4CCN(C(=O)C5CC5)C4)n3)c2C1` (stereo partly drawn) [Compound 20d, 2-(benzo[d][1,3]dioxol-5-yl)-1-(2-(((S)-1-(cyclopropanecarbonyl)pyrrolidine-3-yl)amino)pyrimidin-4-yl)-1,4,5,6-tetracyclopenta[d]imidazol-5-carboxamide] was more than 1 µM; that for `CCOC(=O)C1Cc2nc(-c3ccc4c(c3)OCO4)n(-c3ccnc(N[C@H]4CCCN(C(=O)C5CC5)C4)n3)c2C1` (stereo partly drawn) [Compound 18d, ethyl 2-(benzo[d][1,3]dioxol-5-yl)-1-(2-(((S)-1-(cyclopropanecarbonyl)piperidin-3-yl)amino)pyrimidin-4-yl)-1,4,5,6-tetracyclopenta[d]imidazol-5-carboxylate] was less than 0.03 µM; that for `CCOC(=O)C1Cc2nc(-c3ccc4c(c3)OCO4)n(-c3ccnc(N[C@@H]4CCN(C(=O)C5CC5)C4)n3)c2C1` (stereo partly drawn) [Compound 17d, ethyl 2-(benzo[d][1,3]dioxol-5-yl)-1-(2-(((R)-1-(cyclopropanecarbonyl)pyrrolidine-3-yl)amino)pyrimidin-4-yl)-1,4,5,6-tetracyclopenta[d]imidazol-5-carboxylate] was less than 0.03 µM.

Staying with this assay, now noted: Table 5.
`NC(=O)C1Cc2nc(-c3ccc4c(c3)CCO4)n(-c3ccnc(N[C@H]4CCCN(C(=O)C5CC5)C4)n3)c2C1` (stereo partly drawn) [Compound 22e, 1-(2-(((S)-1-(cyclopropanecarbonyl)piperidin-3-yl)amino)pyrimidin-4-yl)-2-(2,3-dihydrobenzofuran-5-yl)-1,4,5,6-tetracyclopenta[d]imidazol-5-carboxamide] gave an IC50 of less than 0.03 µM. The same measure, in the same setting: the value for `NC(=O)C1Cc2nc(-c3ccc4c(c3)CCO4)n(-c3ccnc(N[C@@H]4CCCN(C(=O)C5CC5)C4)n3)c2C1` (stereo partly drawn) [Compound 23e, 1-(2-(((R)-1-(cyclopropanecarbonyl)piperidin-3-yl)amino)pyrimidin-4-yl)-2-(2,3-dihydrobenzofuran-5-yl)-1,4,5,6-tetracyclopenta[d]imidazol-5-carboxamide] was less than 0.03 µM; that for `NC(=O)C1Cc2nc(-c3ccc4c(c3)CCO4)n(-c3ccnc(N[C@H]4CCN(C(=O)C5CC5)C4)n3)c2C1` (stereo partly drawn) [Compound 20e, 1-(2-(((S)-1-(cyclopropanecarbonyl)pyrrolidine-3-yl)amino)pyrimidin-4-yl)-2-(2,3-dihydrobenzofuran-5-yl)-1,4,5,6-tetracyclopenta[d]imidazol-5-carboxamide] was less than 0.03 µM; that for `CCOC(=O)C1Cc2nc(-c3ccc4c(c3)CCO4)n(-c3ccnc(N[C@@H]4CCCN(C(=O)C5CC5)C4)n3)c2C1` (stereo partly drawn) [Compound 19e, ethyl 1-(2-(((R)-1-(cyclopropanecarbonyl)piperidin-3-yl)amino)pyrimidin-4-yl)-2-(2,3-dihydrobenzofuran-5-yl)-1,4,5,6-tetracyclopenta[d]imidazol-5-carboxylate] was less than 0.03 µM.

Turning to `CCOC(=O)C1Cc2nc(-c3ccc4c(c3)CCO4)n(-c3ccnc(N[C@H]4CCCN(C(=O)C5CC5)C4)n3)c2C1` (stereo partly drawn) [Compound 18e, ethyl 1-(2-(((S)-1-(cyclopropanecarbonyl)piperidin-3-yl)amino)pyrimidin-4-yl)-2-(2,3-dihydrobenzofuran-5-yl)-1,4,5,6-tetracyclopenta[d]imidazol-5-carboxylate], the IC50 is less than 0.03 µM.
